Assay results reported in patent US12247029B2, “Heterocyclic compounds as class II phosphoinositide 3-kinase inhibitors” (Forschungsverbund Berlin e.V., priority 2018, dated 2025).
pIC50: −log10 of the molar value.

biological target: PI3KC2α Δ1-298 (Homo sapiens (Human), UniProt O00443); test: ADP-Glo kinase assay with purified PI3KC2α Δ1-298; format: biochemical; conditions: not given
Experimental: Previous studies have shown that PI3KC2α can utilize phosphatidylinositol (PI) or phosphatidylinositol 4-phosphate [PI(4)P] to produce PI(3)P or PI(3,4)P2 respectively but with a preference for PI(3,4)P2 production. To verify that purified PI3KC2α Δ1-298 is active, a radioactive kinase assay was performed with PI as a substrate and different amounts of purified PI3KC2α Δ1-298. The lipid product [PI(3)P] was separated on TLC plates, and the PI(3)P signal was correlated with the amount of PI3KC2α used (FIG. 4A). […] After having confirmed the activity of purified PI3KC2α Δ1-298, an assay suitable for high content screens in multiwell format (ADP-Glo™ assay) was established. The ADP-Glo™ assay has been used for universal detection of ATP hydrolysis. This assay measures ATP hydrolysis occurring during a kinase reaction. For detection, generated ADP is re-converted into ATP with the […] and converted into light by the Ultra-Glo™ Luciferase reagent. The luminescent signal reports kinase activity (FIG. 4B).
The ADP-Glo™ assay was first used to determine the linear correlation range of signal with different amounts of kinase, and then to assess the Kms for ATP and for PI. […] Further optimization of this assay allowed us to carry out medium-to-high throughput screening using low amounts of purified enzyme (at fixed concentrations of: ATP=40 μM, PI=200 μM, PI3KC2α A1−298=10 ng/μl).
Primary screens were performed using the ADP-Glo™ assay in a 384-well format. 37, 224 small molecules were screened for their ability to inhibit kinase activity of PI3KC2α Δ1-298. The concentration of each compound used in the primary screens was 10 μM. Kinase incubations with ATP but without PI were used as negative control samples. This primary screen turned out to be robust with an average z′ factor of 0.57, and therefore judged as successful.
ADP-Glo kinase assay was performed as described by the manufacturer's protocol. Briefly, the kinase assay was performed with a […] of liver PI/ATP/purified PI3KC2α for 20 min in kinase reaction buffer described above. To deplete the remaining ATP from the reaction, 5 μl of […] was added to the kinase reaction mixture and incubated for 40 min. For detection, the generated ADP is re-converted into ATP and converted into light by the Ultra-Glo™ luciferase in kinase detection reagent. The luminescent signal positively correlates with kinase activity. All reactions are performed in Corning® 384 well-white plates.

Chain of PI3KC2α Δ1-298 (O00443 299-1686): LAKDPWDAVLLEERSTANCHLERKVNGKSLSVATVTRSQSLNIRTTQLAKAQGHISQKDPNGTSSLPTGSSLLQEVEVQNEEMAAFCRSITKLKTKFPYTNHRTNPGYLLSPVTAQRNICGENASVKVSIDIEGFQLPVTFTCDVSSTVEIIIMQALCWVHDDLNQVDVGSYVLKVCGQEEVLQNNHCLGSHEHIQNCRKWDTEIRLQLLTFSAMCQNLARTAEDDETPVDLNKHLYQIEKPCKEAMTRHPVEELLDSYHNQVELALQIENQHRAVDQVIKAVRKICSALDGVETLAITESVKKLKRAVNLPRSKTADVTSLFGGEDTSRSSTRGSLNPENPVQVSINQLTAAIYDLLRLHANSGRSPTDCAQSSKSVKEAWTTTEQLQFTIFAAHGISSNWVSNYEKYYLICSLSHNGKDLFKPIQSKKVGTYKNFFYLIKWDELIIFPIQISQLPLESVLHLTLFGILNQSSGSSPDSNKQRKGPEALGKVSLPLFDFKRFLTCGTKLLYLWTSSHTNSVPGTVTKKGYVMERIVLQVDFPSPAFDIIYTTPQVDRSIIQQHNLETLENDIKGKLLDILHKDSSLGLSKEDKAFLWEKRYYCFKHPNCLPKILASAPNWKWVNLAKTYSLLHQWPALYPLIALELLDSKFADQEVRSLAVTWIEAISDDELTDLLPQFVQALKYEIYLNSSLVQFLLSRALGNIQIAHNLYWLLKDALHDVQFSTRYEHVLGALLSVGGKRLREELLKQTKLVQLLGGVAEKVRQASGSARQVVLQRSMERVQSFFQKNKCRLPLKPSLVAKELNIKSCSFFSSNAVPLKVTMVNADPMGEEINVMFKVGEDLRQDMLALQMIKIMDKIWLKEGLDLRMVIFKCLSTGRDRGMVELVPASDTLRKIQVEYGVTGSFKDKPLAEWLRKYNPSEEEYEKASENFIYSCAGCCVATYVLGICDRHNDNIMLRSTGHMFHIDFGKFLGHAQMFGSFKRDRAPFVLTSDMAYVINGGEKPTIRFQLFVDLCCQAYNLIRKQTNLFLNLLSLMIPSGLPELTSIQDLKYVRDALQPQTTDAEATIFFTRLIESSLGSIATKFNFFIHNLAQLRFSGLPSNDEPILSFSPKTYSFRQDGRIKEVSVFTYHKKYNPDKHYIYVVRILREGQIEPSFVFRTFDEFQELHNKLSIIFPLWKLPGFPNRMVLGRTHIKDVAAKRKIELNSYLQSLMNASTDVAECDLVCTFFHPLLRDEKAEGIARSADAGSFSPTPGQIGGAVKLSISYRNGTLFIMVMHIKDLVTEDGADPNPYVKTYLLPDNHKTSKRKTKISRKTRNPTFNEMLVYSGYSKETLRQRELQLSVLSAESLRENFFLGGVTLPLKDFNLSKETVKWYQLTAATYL

| inhibition at 10 µM | Compound |
| --- | --- |
| 30% | CC(C)NC(=O)CSc1nc2nccnc2c(=O)n1CCc1ccccc1 [Example Compound 61, N-Isopropyl-2-((4-oxo-3-phenethyl-3,4-dihydropteridin-2-yl)thio)acetamide] |

same assay, conditions: read-out: IC50 (PI3KC2α; ADP-Glo™ assay)

| pIC50 | Compound |
| --- | --- |
| 4.64 | Cc1cnc2nc(SCC(=O)Nc3nccs3)n(CCc3ccccc3)c(=O)c2n1 [Example Compound 46, 2-((6-Methyl-4-oxo-3-phenethyl-3,4-dihydropteridin-2-yl)thio)-N-(thiazol-2-yl)acetamide] |
| 6.23 | O=C(CSc1nc2nccnc2c(=O)n1CCC1CCCCC1)Nc1nccs1 [Example Compound 44, 2-((3-(2-Cyclohexylethyl)-4-oxo-3,4-dihydropteridin-2-yl)thio)-N-(thiazol-2-yl)acetamide] |
| 5.24 | O=c1c2nccnc2nc(SCc2nc3ccccc3o2)n1CCc1ccccc1 [Example Compound 63, 2-((Benzo[d]oxazol-2-ylmethyl)thio)-3-phenethylpteridin-4(3H)-one] |
| 5.68 | O=C(CSc1nc2nccnc2c(=O)n1CCc1cccc(F)c1)Nc1ncco1 [Example Compound 3, 2-((3-(3-Fluorophenethyl)-4-oxo-3,4-dihydropteridin-2-yl)thio)-N-(oxazol-2-yl)acetamide] |
| 6.70 | CS(=O)(=O)N(c1cccc(-c2csc(NC(=O)CSc3nc4nccnc4c(=O)n3CCc3ccccc3)n2)c1)S(C)(=O)=O [Example Compound 55, N-(4-(3-(N-(Methylsulfonyl)methylsulfonamido)phenyl)thiazol-2-yl)-2-((4-oxo-3-phenethyl-3,4-dihydropteridin-2-yl)thio)acetamide] |
| 6.77 | O=c1c2nccnc2nc(SCc2nc3ccccc3[nH]2)n1CCc1ccccc1 [Example Compound 65, 2-(((1H-Benzo[d]imidazol-2-yl)methyl)thio)-3-phenethylpteridin-4(3H)-one] |
| 4.29 | O=c1c2nccnc2nc(SCc2nc3cc(Br)ccc3[nH]2)n1CCc1ccccc1 [Example Compound 72, 2-(((5-Bromo-1H-benzo[d]imidazol-2-yl)methyl)thio)-3-phenethylpteridin-4(3H)-one] |
| 5.96 | O=C(CSc1nc2nccnc2c(=O)n1CCc1cccs1)Nc1nccs1 [Example Compound 8, 2-((4-Oxo-3-(2-(thiophen-2-yl)ethyl)-3,4-dihydropteridin-2-yl)thio)-N-(thiazol-2-yl)acetamide] |
| 4.66 | O=c1c2nccnc2nc(SCc2ncc[nH]2)n1CCc1ccccc1 [Example Compound 76, 2-(((1H-Imidazol-2-yl)methyl)thio)-3-phenethylpteridin-4(3H)-one] |
| 4.89 | O=C(CSc1nc2cccnc2c(=O)n1CCc1ccccc1)Nc1nccs1 [Example Compound 13, 2-((4-Oxo-3-phenethyl-3,4-dihydropyrido[3,2-d]pyrimidin-2-yl)thio)-N-(thiazol-2-yl)acetamide] |
| 5.44 | CC(C)(C)OC(=O)N1CCC(n2c(SCC(=O)Nc3nccs3)nc3nccnc3c2=O)CC1 [Example Compound 93, tert-Butyl 4-(4-oxo-2-((2-oxo-2-(thiazol-2-ylamino)ethyl)thio)pteridin-3(4H)-yl)piperidine-1-carboxylate] |
| 6.43 | COC(=O)[C@H]1C[C@H](n2c(SCC(=O)Nc3nccs3)nc3nccnc3c2=O)C1 [Example Compound 91, trans-Methyl 3-(4-oxo-2-((2-oxo-2-(thiazol-2-ylamino)ethyl)thio)pteridin-3(4H)-yl)cyclobutane-1-carboxylate] |
| 5.23 | O=C(CSc1nc2nccnc2c(=O)n1CCc1ccccc1)NC1CCC1 [Example Compound 60, N-Cyclobutyl-2-((4-oxo-3-phenethyl-3,4-dihydropteridin-2-yl)thio)acetamide] |
| 6.77 | O=C(CSc1nc2nccnc2c(=O)n1C1Cc2ccccc2C1)Nc1nccs1 [Example Compound 87, 2-((3-(2,3-Dihydro-1H-inden-2-yl)-4-oxo-3,4-dihydropteridin-2-yl)thio)-N-(thiazol-2-yl)acetamide] |
